Twelve compounds from PubChem BioAssay (NCI) can be followed below.

SMILES strings stand for the structures.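 Tested at 5 concentrations; 48 h exposure; 96-well plates; endpoints linearly interpolated, else capped at highest concentration. The concentration for full growth arrest is given as TGI.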

Some test systems named below: EKVX NSCLC; HCT-15 colon; U251 CNS; UACC-62 melanoma; MCF7 breast; OVCAR-5 ovarian; SK-MEL-2 melanoma; KM12 colon; M14 melanoma; ACHN renal; SN12C renal.
Common to all, as to experiment: DTP human tumour cell line panel, 48 h

What is called TGI is the concentration giving total growth inhibition. Higher therefore signals less potent growth arrest. As for `COc1cccc(-c2cc(=O)c3cc(N4CCCCC4)ccc3[nH]2)c1`, the TGI is more than 100 µM in the assay on EKVX NSCLC; more than 100 µM in the assay with HCT-15 colon; more than 85.9 µM in the assay with U251 CNS; more than 100 µM in the assay on UACC-62 melanoma; more than 100 µM with MCF7 breast; more than 100 µM with OVCAR-5 ovarian. In addition, the TGI in the assay on SK-MEL-2 melanoma is more than 100 µM; in the assay with KM12 colon, 0.783 µM; in the assay on M14 melanoma, more than 100 µM; with ACHN renal, more than 96.6 µM; in the assay with SN12C renal it was more than 100 µM.
`CC(=O)CC1CCC(=O)/C=C/C(=O)OC(CC(C)=O)CCC(=O)/C=C/C(=O)O1` (configuration not stated): the total growth inhibition concentration (TGI) was found to be 21.2 µM with EKVX NSCLC; 4.16 µM in the assay on HCT-15 colon; 42.8 µM with U251 CNS; 29.1 µM with UACC-62 melanoma; 27.6 µM in the assay on MCF7 breast; 31.5 µM in the assay with OVCAR-5 ovarian. Also, the concentration for total growth inhibition (TGI) in the assay on SK-MEL-2 melanoma turned out to be 19.8 µM; in the assay on KM12 colon it was 42.8 µM; in the assay with M14 melanoma, 10.6 µM; in the assay on ACHN renal, 11.2 µM; in the assay on SN12C renal it was 15.3 µM.
Take `Oc1ccc(NCn2c(=S)sc3ccccc32)cc1`: the TGI in the assay with EKVX NSCLC, in the assay with HCT-15 colon, in the assay with U251 CNS, with UACC-62 melanoma, with MCF7 breast and with OVCAR-5 ovarian was more than 100 µM in each case. The total growth inhibition concentration (TGI) with SK-MEL-2 melanoma, in the assay with KM12 colon, in the assay on M14 melanoma, in the assay with ACHN renal and in the assay on SN12C renal was more than 100 µM in each case.
In the case of `C[N+]12C=CC=C1C(N1CCCC1)c1scc(-c3ccc(Br)cc3)c12` (configuration not stated), the TGI in the assay on EKVX NSCLC is more than 100 µM; with HCT-15 colon it was more than 100 µM; with U251 CNS, 24.7 µM; with UACC-62 melanoma, 80.3 µM; with MCF7 breast, more than 90.1 µM; in the assay on OVCAR-5 ovarian, more than 100 µM. Also, the total growth inhibition concentration (TGI) in the assay with SK-MEL-2 melanoma is 17.3 µM; in the assay on KM12 colon, 25.9 µM; in the assay on M14 melanoma, more than 66.4 µM; with ACHN renal, more than 100 µM; with SN12C renal, more than 35.7 µM.
Take `O=c1c(F)cn(Cc2c(Cl)cccc2Cl)c(=O)n1Cc1c(Cl)cccc1Cl`: the TGI with EKVX NSCLC, in the assay on HCT-15 colon, in the assay with U251 CNS, with UACC-62 melanoma, with MCF7 breast and in the assay on OVCAR-5 ovarian was more than 31.6 µM in each case. For the same compound, the TGI in the assay with SK-MEL-2 melanoma, in the assay on KM12 colon, with M14 melanoma, in the assay with ACHN renal and in the assay with SN12C renal was more than 31.6 µM in each case.
Consider `COc1ccc(C2c3cc4c(cc3OC3(OC)COC(=O)C23)OCO4)c(OC)c1` (configuration not stated), for which the TGI was more than 73.1 µM with EKVX NSCLC; more than 100 µM with HCT-15 colon; more than 100 µM in the assay on U251 CNS; more than 85.9 µM in the assay with UACC-62 melanoma; 90.4 µM in the assay with MCF7 breast; more than 100 µM with OVCAR-5 ovarian. For the same compound, the TGI in the assay on SK-MEL-2 melanoma is more than 100 µM; in the assay with KM12 colon, 40 µM; with M14 melanoma, 25.8 µM; in the assay on ACHN renal, more than 100 µM; with SN12C renal it was more than 100 µM.
Regarding `COCOC1/C=C/CCCCC(=O)C(C)C#CC1` (configuration not stated), the TGI in the assay on EKVX NSCLC was determined as 23.1 µM; with HCT-15 colon it was 7.11 µM; in the assay on U251 CNS, 28 µM; in the assay on UACC-62 melanoma, 15.8 µM; with MCF7 breast, 14.8 µM; in the assay with OVCAR-5 ovarian, 26.2 µM. In addition, the TGI in the assay with SK-MEL-2 melanoma was 21.2 µM; with KM12 colon it was 25.5 µM; in the assay with M14 melanoma, 14.5 µM; in the assay with ACHN renal, 19.9 µM; in the assay on SN12C renal, 19 µM.
Consider `C=C1c2nc3ccccc3n2C=C(c2ccc(OC)cc2)N1c1ccc(OC)cc1`, for which the TGI in the assay with EKVX NSCLC was more than 100 µM; with HCT-15 colon, more than 100 µM; in the assay on U251 CNS it was 28.4 µM; with UACC-62 melanoma, 51.8 µM; with MCF7 breast, more than 100 µM; in the assay on OVCAR-5 ovarian it was more than 100 µM. Further, the TGI is more than 100 µM in the assay on SK-MEL-2 melanoma; 44.9 µM in the assay on KM12 colon; more than 100 µM in the assay on M14 melanoma; 25 µM in the assay on ACHN renal; 59 µM with SN12C renal.
Consider `O=C1NC2(CCN(CCc3ccccc3)CC2)Oc2ccccc21`, for which the TGI with EKVX NSCLC, in the assay on HCT-15 colon, in the assay with U251 CNS, with UACC-62 melanoma, in the assay on MCF7 breast and in the assay with OVCAR-5 ovarian was more than 100 µM throughout. For the same compound, the TGI in the assay with SK-MEL-2 melanoma is more than 100 µM; with KM12 colon, more than 100 µM; in the assay with M14 melanoma, 49.9 µM; in the assay with ACHN renal, more than 100 µM; in the assay on SN12C renal, more than 100 µM.
In the case of `CC(C)=C[C@H]1C[C@H](C)[C@H]2CC[C@H](C)c3c2c1c(C)c1ncoc31`, the concentration for total growth inhibition (TGI) with EKVX NSCLC amounted to 30 µM; with HCT-15 colon, 34.8 µM; with U251 CNS, 34 µM; in the assay on UACC-62 melanoma, 32.9 µM; with MCF7 breast it was 30.5 µM; in the assay on OVCAR-5 ovarian, 29.9 µM. Moreover, the TGI with SK-MEL-2 melanoma stood at 31.1 µM; in the assay with KM12 colon it was 34.5 µM; with M14 melanoma, 29.3 µM; in the assay with ACHN renal, 32.7 µM; in the assay on SN12C renal, 35.6 µM.
On to `COc1ccc2oc3c(C)cc4c(OC)nnc(OC)c4c3c2c1`, for which the TGI in the assay with EKVX NSCLC is more than 100 µM; in the assay on HCT-15 colon it was 63.9 µM; with U251 CNS, 14.8 µM; in the assay on UACC-62 melanoma, more than 100 µM; with MCF7 breast, more than 100 µM; in the assay with OVCAR-5 ovarian, more than 100 µM. For the same compound, the TGI with SK-MEL-2 melanoma, in the assay with KM12 colon, in the assay with M14 melanoma, with ACHN renal and in the assay with SN12C renal was more than 100 µM throughout.
Consider `CC1=C/C(=N\NC(N)=S)C(C(O)(C(F)(F)F)C(F)(F)F)C(C)(C)C1` (configuration not stated), for which the TGI in the assay with EKVX NSCLC, in the assay with HCT-15 colon, with U251 CNS, in the assay with UACC-62 melanoma, with MCF7 breast and in the assay on OVCAR-5 ovarian was more than 10 µM throughout. The total growth inhibition concentration (TGI) with SK-MEL-2 melanoma, in the assay on KM12 colon, with M14 melanoma, with ACHN renal and in the assay on SN12C renal was more than 10 µM in each case.
